Results taken from patent publication US4521418A, “Guanidinothiazolyl derivatives” (Smith Kline & French Laboratories Limited, priority 1979, dated 1985).

System: histamine H2 -receptors
Experiment: inhibition of histamine-stimulated secretion of gastric acid from Heidenhain pouch dogs
Assay type: in vivo
Settings: Heidenhain pouch dog, 0.25 micromol kg^-1 i.v.
Experimental: Heidenhain pouch dogs are prepared by the following procedure. The abdomen of a male beagle (14-16 kg) is opened and the stomach is exteriorized. Blood vessels are ligated and cut at two places on the greater curvature to enable a piece of the fundus of the stomach to be cut away from the main stomach to form the pouch. The incision lines are sewn together to enable normal digestion. A stainless steel cannula is inserted into the pouch and the end not in the pouch is exteriorized through a stab wound in the abdominal wall to allow drainage of gastric juice under gravity. Finally, the abdomen is closed by a continuous suture. The dogs are ready for experimental use approximately three weeks after operation. The compounds of the invention are tested in Heidenhain pouch dogs by the following procedure. The dogs are starved for approximately 20 hours prior to the experiment and are then placed in Pavlov stands. A polythene cannula is placed in a leg vein and saline is infused for about one hour. A check is made that there is no basal acid secretion. Histamine (20 micromoles/hour) or pentagastrin (8 micrograms/kg/hour) is continuously infused in place of the saline. A plateau of acid secretion is reached after 11/2 to 2 hours and the test compound is administered intravenously or orally (contained within a hard gelatin capsule). Gastric juice is collected by drainage under gravity into perspex tubes attached to the gastric cannula. Normally samples are collected over fifteen minute periods. The volumes of the samples are measured and aliquots are titrated to pH 7.4 with 0.1N sodium hydroxide. Acid secretion is expressed as the product of the volume and acid concentration.

| Compound | duration of action | mean peak inhibition of histamine-stimulated gastric acid secretion |
| --- | --- | --- |
| N=C(N)Nc1nc(CSCCNc2ncc(Cc3cccnc3)c(=O)[nH]2)cs1 [Example 1, 2-[2-(2-guanidino-4-thiazolylmethylthio)ethylamino]-5-(3-pyridylmethyl)-4-pyrimidone] | extended duration of action | over 50% |
| Cc1ccc(Cc2cnc(NCCSCc3csc(NC(=N)N)n3)[nH]c2=O)cn1 [Example 3, 2-[2-(2-guanidino-4-thiazolylmethylthio)ethylamino]-5-(6-methyl-3-pyridylmethyl)-4-pyrimidone] | extended duration of action | over 50% |
